Where two headings read alike, the source gives them in different places.
Experiments:
Bcr-Abl (H396P) = Bcr-Abl (H396P) (Homo sapiens, UniProt P00519, H396P, form not given); test: Bcr-Abl tyrosine kinase enzyme activity
Drosophila melanogaster = test: Gene toxicity: induced somatic mosaicism; format: in vivo; settings: all doses tested
KDR/VEGFR2 = KDR/VEGFR2 (Homo sapiens, UniProt P35968); test: Human kinase panel at 100 nM; format: biochemical
[1] = Stability of polymorph modifications, suspending in acetone for 6 days; format: physicochemical
Experimental: Crystallinity of all samples obtained was studied using the method of X-ray powder diffraction (to study the crystallinity structure). Diffraction patterns were obtained at a temperature of 25° C. […] Survey step 0.02° 2θ, angle range 3-45° 2θ. Diffraction patterns obtained were studied in detail using X'Pert HighScore Plus software package.

[2] = Dissolution kinetics (USP Apparatus 1 Basket Method); format: physicochemical; settings: distilled water, 37±1° C., 118 mg salt
Experimental: During further studies of the polymorphous modifications of the methanesulfonic acid salt of 3-(1,2,4-triazolo[4,3-a]pyridine-3-ylethynyl)-4-methyl-N-(4-((4-methylpiperazine-1-yl)methyl)-3-trifluoromethylphenyl)benzamide, the kinetics of dissolution of the free base and the two methanesulfonic acid salt form polymorphous modifications was studied. Dissolution kinetics studies were performed using USP Apparatus 1 Basket Method (USP40, General Chapter <711>. Dissolution), dissolution media volume—700 mL, temperature—37±1° C. paddle stirrers' rotation rate—100 rpm. The test sample dissolution rate was calculated as an average of six repeats. Distilled water was used as the dissolution medium for the polymorphous modifications of 3-(1,2,4-triazolo[4,3-a]pyridine-3-ylethynyl)-4-methyl-N-(4-((4-methylpiperazine-1-yl)methyl)-3-trifluoromethylphenyl)benzamide methanesulfonic acid salt and, and a solution of 12.2 mL of methanesulfonic acid in 500 mL of water was used as the dissolution medium for the free base. Test portions containing 100 mg of 3-(1,2,4-triazolo[4,3-a]pyridine-3-ylethynyl)-4-methyl-N-(4-((4-methylpiperazine-1-yl)methyl)-3-trifluoromethylphenyl)benzamide or 118 mg of 3-(1,2,4-triazolo[4,3-a]pyridine-3-ylethynyl)-4-methyl-N-(4-((4-methylpiperazine-1-yl)methyl)-3-trifluoromethylphenyl)benzamide methanesulfonic acid salt (100 mg calculated as free base) were used for dissolution. In 780 minutes (13 hours) after the beginning of the test, pH of prepared solutions was measured.

PDGFRb = PDGFRb (Homo sapiens, UniProt P09619); test: Human kinase panel at 100 nM; format: biochemical
CYP3A4 = CYP3A4 (Homo sapiens, UniProt P08684); test: Metabolism study using cytochrome enzyme drugs; format: in vitro ADME
CYP2D6 = CYP2D6 (Homo sapiens, UniProt P10635); test: Metabolism study using cytochrome enzyme drugs; format: in vitro ADME; settings: 2D6
EPHB2 = EPHB2 (Homo sapiens, UniProt P29323); test: Human kinase panel at 100 nM; format: biochemical
BaF3/BCR-ABL T315I = test: Toxicity to transduced BaF3 model tumor cell line; format: cell-based, murine; settings: Mus musculus
HCK = HCK (Homo sapiens, UniProt P08631); test: Human kinase panel at 100 nM; format: biochemical
in vivo [3] = format: in vivo; settings: mice
Bcr-Abl (T315I) = Bcr-Abl (T315I) (Homo sapiens, UniProt P00519, T315I, form not given); test: Bcr-Abl tyrosine kinase enzyme activity; settings: 3 independent experiments
HCT116 line cells = settings: oral, 25 mg/kg (21 mg/kg as free base), 20 days
Experimental: To induce pathology, HCT116 line cells were used. Cells in the amount of 200 μL (2.5×10^7 cells/mL) were subcutaneously injected to the right side of thymus-deprived female mice (SCID). […] To determine the efficacy of tumor growth inhibition upon completion of treatment (20 days), the average size ratio was calculated between the therapeutic/control groups (% T/C).

CD-1 line mice males = test: Acute toxicity, oral route, mice; settings: for LD10 / LD90: oral, male CD-1 mice
Source text: (§1) For each drug dose study a group of six animals was used. The study included control groups with the same animal headcount, which received equivalent solvent doses of a 0.5% water solution of methylcellulose. The follow-up period was 28 days. Lab mouse survivability analysis allowed carrying out Bliss analysis and determining the lethal doses of the studied drugs.

[4] = Acute toxicity, oral route, mice; settings: male, CD-1, mouse, in vivo, po, LD50, oral, male CD-1 mice
Source text: as §1

Bcr-Abl (E255K) = Bcr-Abl (E255K) (Homo sapiens, UniProt P00519, E255K, form not given); test: Bcr-Abl tyrosine kinase enzyme activity
KCL-22 = test: Cytotoxicity, Ph+ CML model cell line; format: cell-based; settings: Homo sapiens, read-out: IC50 (toxicity)
rats = test: Acute toxicity studies, rats; format: in vivo
BV-173 = test: Cytotoxicity, Ph+ CML model cell line; format: cell-based; settings: Homo sapiens, read-out: IC50 (toxicity)
Bcr-Abl (Q252H) = Bcr-Abl (Q252H) (Homo sapiens, UniProt P00519, Q252H, form not given); test: Bcr-Abl tyrosine kinase enzyme activity
Bcr-Abl (F317I) = Bcr-Abl (F317I) (Homo sapiens, UniProt P00519, F317I, form not given); test: Bcr-Abl tyrosine kinase enzyme activity
CYP2B6 = CYP2B6 (Homo sapiens, UniProt P20813); test: Metabolism study using cytochrome enzyme drugs; format: in vitro ADME; settings: 2B6
Gene toxicity: Ames test = format: cell-based; settings: all concentrations tested
BaF3/BCR-ABL Y253F = test: Toxicity to transduced BaF3 model tumor cell line; format: cell-based, murine; settings: Mus musculus
in vivo [5] = settings: for Vd / half-life / clearance / AUC / bioavailability: in vivo; for Vd: read-out: apparent volume of distribution Vd; for half-life: read-out: half-life period (converted); for clearance: intravenous administration; for bioavailability: read-out: bioavailability F
Source text: Clearance following intravenous administration is quite high: 2.12 L/h/kg for dogs, 1.61 L/h/kg for rats. A large apparent volume of distribution (Vd=14.1 L/kg for dogs, 6.16 L/kg for rats) indicates extensive drug distribution in tissues.

CYP1A2 = CYP1A2 (Homo sapiens, UniProt P05177); test: Metabolism study using cytochrome enzyme drugs; format: in vitro ADME
BaF3/BCR-ABL = test: Toxicity to transduced BaF3 model tumor cell line; format: cell-based, murine; settings: Mus musculus
[6] = dose of the substance administered

HCK, sequence (P08631 whole entry): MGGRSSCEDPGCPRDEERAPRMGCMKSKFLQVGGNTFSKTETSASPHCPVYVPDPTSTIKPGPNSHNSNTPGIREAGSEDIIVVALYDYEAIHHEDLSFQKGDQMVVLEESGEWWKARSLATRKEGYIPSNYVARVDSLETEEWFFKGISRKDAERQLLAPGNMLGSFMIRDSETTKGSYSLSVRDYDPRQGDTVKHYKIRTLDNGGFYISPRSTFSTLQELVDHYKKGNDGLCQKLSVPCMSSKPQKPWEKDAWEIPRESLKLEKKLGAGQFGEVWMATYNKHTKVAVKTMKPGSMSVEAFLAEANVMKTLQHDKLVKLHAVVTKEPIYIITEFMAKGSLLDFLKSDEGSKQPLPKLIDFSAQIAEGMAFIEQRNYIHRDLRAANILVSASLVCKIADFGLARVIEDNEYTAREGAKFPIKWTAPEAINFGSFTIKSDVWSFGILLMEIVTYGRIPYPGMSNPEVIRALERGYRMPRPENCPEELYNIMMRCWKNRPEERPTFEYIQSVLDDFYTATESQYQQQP
PDGFRb, sequence (P09619 33-1106): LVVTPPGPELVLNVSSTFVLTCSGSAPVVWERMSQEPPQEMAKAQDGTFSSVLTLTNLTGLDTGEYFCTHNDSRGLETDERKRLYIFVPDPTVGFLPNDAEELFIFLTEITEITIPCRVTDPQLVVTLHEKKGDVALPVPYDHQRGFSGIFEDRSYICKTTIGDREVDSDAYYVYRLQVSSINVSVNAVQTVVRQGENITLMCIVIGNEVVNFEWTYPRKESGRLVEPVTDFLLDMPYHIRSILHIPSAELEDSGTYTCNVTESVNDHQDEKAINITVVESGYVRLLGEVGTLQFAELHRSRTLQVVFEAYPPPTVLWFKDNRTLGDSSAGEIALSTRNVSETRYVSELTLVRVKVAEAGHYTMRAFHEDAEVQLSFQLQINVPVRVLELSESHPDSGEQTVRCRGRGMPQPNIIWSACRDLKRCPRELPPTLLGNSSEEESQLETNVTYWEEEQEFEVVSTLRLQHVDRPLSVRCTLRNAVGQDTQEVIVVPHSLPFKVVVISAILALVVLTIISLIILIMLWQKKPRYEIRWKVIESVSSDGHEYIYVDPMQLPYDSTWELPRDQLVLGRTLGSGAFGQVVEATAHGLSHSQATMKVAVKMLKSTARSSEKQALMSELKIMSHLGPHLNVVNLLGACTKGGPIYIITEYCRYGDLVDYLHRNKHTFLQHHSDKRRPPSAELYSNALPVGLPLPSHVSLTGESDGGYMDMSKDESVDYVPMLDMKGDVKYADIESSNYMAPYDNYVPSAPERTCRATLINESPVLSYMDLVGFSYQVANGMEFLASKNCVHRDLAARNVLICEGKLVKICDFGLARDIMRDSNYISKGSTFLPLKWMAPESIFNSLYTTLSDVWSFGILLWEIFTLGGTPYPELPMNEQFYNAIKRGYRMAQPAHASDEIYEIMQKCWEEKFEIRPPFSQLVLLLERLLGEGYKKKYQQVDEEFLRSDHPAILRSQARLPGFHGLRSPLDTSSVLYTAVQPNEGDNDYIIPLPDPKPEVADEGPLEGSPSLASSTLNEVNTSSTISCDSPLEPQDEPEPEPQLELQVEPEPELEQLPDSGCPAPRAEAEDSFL
CYP2D6, sequence (P10635 whole entry): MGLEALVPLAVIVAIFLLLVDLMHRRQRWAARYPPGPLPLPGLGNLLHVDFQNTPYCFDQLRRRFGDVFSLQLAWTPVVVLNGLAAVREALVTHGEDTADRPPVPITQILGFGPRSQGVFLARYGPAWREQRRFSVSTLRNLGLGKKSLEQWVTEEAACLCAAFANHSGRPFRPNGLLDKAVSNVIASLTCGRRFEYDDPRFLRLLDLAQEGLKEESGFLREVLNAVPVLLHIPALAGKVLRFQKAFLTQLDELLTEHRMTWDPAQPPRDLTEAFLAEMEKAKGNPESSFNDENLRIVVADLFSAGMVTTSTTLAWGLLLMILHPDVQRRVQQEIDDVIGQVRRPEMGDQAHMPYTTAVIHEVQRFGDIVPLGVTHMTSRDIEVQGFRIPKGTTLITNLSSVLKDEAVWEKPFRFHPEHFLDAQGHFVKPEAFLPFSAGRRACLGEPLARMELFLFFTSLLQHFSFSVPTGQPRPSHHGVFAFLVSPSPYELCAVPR
CYP2B6, sequence (P20813 whole entry): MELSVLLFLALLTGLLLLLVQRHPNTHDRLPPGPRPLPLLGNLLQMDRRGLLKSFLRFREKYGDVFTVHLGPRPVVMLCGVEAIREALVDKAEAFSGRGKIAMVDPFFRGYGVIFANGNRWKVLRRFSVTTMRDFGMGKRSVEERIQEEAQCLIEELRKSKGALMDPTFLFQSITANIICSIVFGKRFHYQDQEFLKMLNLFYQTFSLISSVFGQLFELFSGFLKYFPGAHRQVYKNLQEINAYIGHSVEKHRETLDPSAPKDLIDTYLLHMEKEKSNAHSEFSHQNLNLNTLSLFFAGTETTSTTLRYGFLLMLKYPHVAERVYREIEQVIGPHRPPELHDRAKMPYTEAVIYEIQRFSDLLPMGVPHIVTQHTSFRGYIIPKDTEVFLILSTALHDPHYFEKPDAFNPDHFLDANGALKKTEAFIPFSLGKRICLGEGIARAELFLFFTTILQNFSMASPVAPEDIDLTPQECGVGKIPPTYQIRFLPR
CYP3A4, sequence (P08684 whole entry): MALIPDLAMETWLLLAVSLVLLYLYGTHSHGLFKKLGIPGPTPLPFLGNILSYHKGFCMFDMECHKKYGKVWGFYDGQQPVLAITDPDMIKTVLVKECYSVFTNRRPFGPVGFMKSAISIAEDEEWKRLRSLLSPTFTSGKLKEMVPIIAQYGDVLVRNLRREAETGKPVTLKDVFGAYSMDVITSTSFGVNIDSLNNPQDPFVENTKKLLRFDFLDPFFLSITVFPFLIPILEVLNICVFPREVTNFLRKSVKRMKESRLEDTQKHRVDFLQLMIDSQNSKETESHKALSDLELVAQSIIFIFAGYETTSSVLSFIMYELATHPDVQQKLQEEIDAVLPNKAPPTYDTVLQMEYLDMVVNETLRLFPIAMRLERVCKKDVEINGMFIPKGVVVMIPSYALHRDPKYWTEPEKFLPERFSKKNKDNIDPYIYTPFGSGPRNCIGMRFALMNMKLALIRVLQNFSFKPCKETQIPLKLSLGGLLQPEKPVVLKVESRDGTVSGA
EPHB2, sequence (P29323 19-1055): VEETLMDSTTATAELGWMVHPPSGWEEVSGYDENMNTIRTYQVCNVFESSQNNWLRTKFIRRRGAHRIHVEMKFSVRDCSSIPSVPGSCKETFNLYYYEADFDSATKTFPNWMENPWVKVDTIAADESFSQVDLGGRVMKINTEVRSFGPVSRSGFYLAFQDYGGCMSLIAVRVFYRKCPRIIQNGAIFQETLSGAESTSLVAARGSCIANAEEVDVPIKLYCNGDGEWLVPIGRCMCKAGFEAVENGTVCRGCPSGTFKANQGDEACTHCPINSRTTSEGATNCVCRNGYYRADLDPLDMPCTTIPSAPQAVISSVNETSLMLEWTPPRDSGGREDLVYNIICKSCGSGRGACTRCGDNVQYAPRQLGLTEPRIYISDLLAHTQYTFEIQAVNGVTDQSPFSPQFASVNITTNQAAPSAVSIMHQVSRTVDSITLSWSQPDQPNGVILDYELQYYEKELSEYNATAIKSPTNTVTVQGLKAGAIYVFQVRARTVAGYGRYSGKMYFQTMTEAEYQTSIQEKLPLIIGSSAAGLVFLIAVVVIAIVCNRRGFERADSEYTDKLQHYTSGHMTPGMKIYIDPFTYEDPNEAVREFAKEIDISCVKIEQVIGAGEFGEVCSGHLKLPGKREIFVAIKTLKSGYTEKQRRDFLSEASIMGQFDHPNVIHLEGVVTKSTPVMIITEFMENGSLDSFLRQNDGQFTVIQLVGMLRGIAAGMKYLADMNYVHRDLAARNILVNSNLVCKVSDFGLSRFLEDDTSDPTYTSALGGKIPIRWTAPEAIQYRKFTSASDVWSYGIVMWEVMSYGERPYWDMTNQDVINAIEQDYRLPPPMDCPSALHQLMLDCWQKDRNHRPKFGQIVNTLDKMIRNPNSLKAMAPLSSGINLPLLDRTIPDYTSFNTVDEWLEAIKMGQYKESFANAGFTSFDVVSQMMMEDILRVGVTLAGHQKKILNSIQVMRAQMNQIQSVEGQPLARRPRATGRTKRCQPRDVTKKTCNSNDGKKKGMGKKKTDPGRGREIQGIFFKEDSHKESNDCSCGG
CYP1A2, sequence (P05177 whole entry): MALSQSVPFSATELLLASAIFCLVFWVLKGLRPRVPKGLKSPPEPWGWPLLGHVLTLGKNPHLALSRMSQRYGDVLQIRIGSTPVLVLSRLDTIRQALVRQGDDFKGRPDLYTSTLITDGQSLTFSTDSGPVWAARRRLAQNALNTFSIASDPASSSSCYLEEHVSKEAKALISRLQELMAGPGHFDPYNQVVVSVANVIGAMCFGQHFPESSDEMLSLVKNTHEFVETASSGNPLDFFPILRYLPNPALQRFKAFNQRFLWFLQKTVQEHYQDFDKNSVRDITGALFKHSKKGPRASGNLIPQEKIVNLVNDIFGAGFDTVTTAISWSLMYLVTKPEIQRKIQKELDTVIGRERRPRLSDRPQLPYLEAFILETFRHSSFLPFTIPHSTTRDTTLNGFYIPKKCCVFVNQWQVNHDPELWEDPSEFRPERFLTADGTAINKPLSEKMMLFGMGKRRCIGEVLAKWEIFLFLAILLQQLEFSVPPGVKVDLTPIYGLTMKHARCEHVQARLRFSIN

Q: With `CS(=O)(=O)O.Cc1ccc(C(=O)Nc2ccc(CN3CCN(C)CC3)c(C(F)(F)F)c2)cc1C#Cc1nnc2ccccn12` [methanesulfonic acid salt, 3-(1,2,4-triazolo[4,3-a]pyridine-3-ylethynyl)-4-methyl-N-(4-((4-methylpiperazin-1-yl)methyl)-3-trifluoromethylphenyl)benzamide mono methanesulfonic acid salt] as the molecule, how does the IC50 (Bcr-Abl (H396P)) read?
A: 1 nM

Q: What about the genotoxic effects (Drosophila melanogaster) of the same molecule?
A: had no genotoxic effects

Q: What about the inhibition at 0.1 µM (KDR/VEGFR2) of the same molecule?
A: > 50%

Q: What about the “crystalline structure after suspending in acetone” value ([1]; acetone, 6 days) of the same molecule?
A: remained unchanged

Q: What about the “Crystallinity in 6 days” value ([1]; suspending in acetone for 6 days, room temperature) of the same molecule?
A: Cryst.

Q: What about the “time for 95% to transfer to the solution” value [2] of the same molecule?
A: less than one minute

Q: What about the “time to full dissolution” value [2] of the same molecule?
A: less than 4 minutes

Q: What about the “hemagglutinin and hemolysin levels in the blood” value (mice; intragastric administration (21 days), mice) of the same molecule?
A: had no effect on the hemagglutinin and hemolysin levels in the blood

Q: What about the “toxic immune effect (overall)” value (mice; mice) of the same molecule?
A: had no toxic immune effect

Q: What about the rosette test (mice; mouse, in vivo) of the same molecule?
A: no effect in the rosette test

Q: What about the “hemagglutinin and hemolysin level in the blood” value (mice; single intragastric administration, mice) of the same molecule?
A: had no effect on the hemagglutinin and hemolysin level in the blood

Q: And the inhibition at 0.1 µM (PDGFRb)?
A: > 50%

Q: And the “participation of the isoform in metabolism” value (“participation of the isoform” below) (CYP3A4)?
A: involves participation

Q: What about the “participation of the isoform” value (CYP2D6) of the same molecule?
A: does not involve

Q: What about the inhibition at 0.1 µM (EPHB2) of the same molecule?
A: > 50%

Q: And the IC50 (BaF3/BCR-ABL T315I)?
A: 75 nM

Q: What about the inhibition at 0.1 µM (HCK) of the same molecule?
A: > 50%

Q: What about the half-life (in vivo [3]; mouse, in vivo, read-out: half-life period (converted)) of the same molecule?
A: ~3 h

Q: What about the AUC (in vivo [3]; mouse, in vivo, oral, 5 mg/kg) of the same molecule?
A: 372 ng·h/mL

Q: And the AUC (in vivo [3]; mouse, in vivo, oral, 50 mg/kg)?
A: 12100 ng·h/mL

Q: What about the maximum concentration (in vivo [3]; oral, 5 mg/kg) of the same molecule?
A: 82 ng/mL

Q: And the maximum concentration (in vivo [3]; oral, 50 mg/kg)?
A: 1,099 ng/mL

Q: What about the “period of absorption to maximum concentration” value (in vivo [3]; oral, 5 to 50 mg/kg) of the same molecule?
A: 2 to 4 h

Q: And the IC50 (Bcr-Abl (T315I))?
A: 0.78 to 21 nM

Q: What about the “T/C (average tumor size ratio therapeutic/control)” value (HCT116 line cells) of the same molecule?
A: < 35%

Q: And the “signs of animal intoxication” value (CD-1 line mice males; mouse, in vivo, po)?
A: dyspnea, hypodynamia, tumbled fur, diarrhea, bloating, in some animals—focal alopecia

Q: And the LD10 (CD-1 line mice males; calculated as a free base)?
A: (508*) mg/kg

Q: What about the LD90 (CD-1 line mice males; calculated as a free base) of the same molecule?
A: (1,864*) mg/kg

Q: And the LD10 (CD-1 line mice males; [6])?
A: 600 mg/kg

Q: And the LD90 (CD-1 line mice males; [6])?
A: 2,200 mg/kg

Q: What about the LD50 at 28 days ([4]; calculated as a free base) of the same molecule?
A: 1190 mg/kg

Q: What about the LD50 at 28 days [4, 6] of the same molecule?
A: 1400 mg/kg

Q: And the IC50 (Bcr-Abl (E255K))?
A: 9.5 nM

Q: What about the IC50 (KCL-22) of the same molecule?
A: 9 nM

Q: What about the LD10 (rats; calculated as a free base) of the same molecule?
A: 1,695 mg/kg

Q: What about the LD10 (rats; dose of the salt) of the same molecule?
A: 2,000 mg/kg

Q: And the IC50 (BV-173)?
A: 5 nM

Q: And the IC50 (Bcr-Abl (Q252H))?
A: 12 nM

Q: What about the IC50 (Bcr-Abl (F317I)) of the same molecule?
A: 2 nM

Q: And the “participation of the isoform” value (CYP2B6)?
A: does not involve

Q: What about the genotoxic effects (Gene toxicity: Ames test) of the same molecule?
A: had no genotoxic effects

Q: What about the IC50 (BaF3/BCR-ABL Y253F) of the same molecule?
A: 25 nM

Q: What about the Vd (in vivo [5]; dog, dogs) of the same molecule?
A: 14.1 L/kg

Q: What about the half-life (in vivo [5]; dog, dogs) of the same molecule?
A: ~7 h

Q: What about the clearance (in vivo [5]; dog, dogs) of the same molecule?
A: 35.3 mL/min/kg

Q: And the AUC (in vivo [5]; dog, oral, dogs, 2 mg/kg)?
A: 420 ng·h/mL

Q: And the AUC (in vivo [5]; dog, oral, dogs, 22 mg/kg)?
A: 5480 ng·h/mL

Q: What about the AUC (in vivo [5]; dog, oral, dogs, 45 mg/kg) of the same molecule?
A: 5170 ng·h/mL

Q: And the bioavailability (in vivo [5]; dog, oral, dogs, 2 to 22 mg/kg (2 to 19 mg/kg as free base))?
A: 45.9 to 66.1%

Q: And the maximum plasma concentration (in vivo [5]; oral, dogs, 2 to 45 mg/kg)?
A: 31.8 to 224 ng/mL

Q: And the “time to maximum plasma concentration” value (in vivo [5]; oral, dogs, 2 to 45 mg/kg)?
A: 3 to 8.5 h

Q: And the maximum concentration (in vivo [5]; oral, rats, 5 mg/kg)?
A: 72 ng/mL

Q: And the maximum concentration (in vivo [5]; oral, rats, 80 mg/kg)?
A: 1250 ng/mL

Q: And the “time to maximum concentration” value (in vivo [5]; oral, rats, 5 to 80 mg/kg)?
A: 2.3 to 5.3 h

Q: What about the clearance (in vivo [5]; rat, rats) of the same molecule?
A: 26.8 mL/min/kg

Q: And the AUC (in vivo [5]; rat, oral, rats, 5 mg/kg)?
A: 430 ng·h/mL

Q: What about the AUC (in vivo [5]; rat, oral, rats, 80 mg/kg) of the same molecule?
A: 21100 ng·h/mL

Q: What about the bioavailability (in vivo [5]; rat, oral, rats, 5 to 80 mg/kg (4.2 to 68 mg/kg as free base)) of the same molecule?
A: 13.8 to 59.5%

Q: And the Vd (in vivo [5]; rat, rats)?
A: 6.16 L/kg

Q: What about the half-life (in vivo [5]; rat, rats) of the same molecule?
A: ~3 h

Q: What about the “participation of the isoform” value (CYP1A2) of the same molecule?
A: does not involve

Q: What about the IC50 (BaF3/BCR-ABL) of the same molecule?
A: 5 nM

Source: patent publication US11225474B2, “Crystalline salt forms of 3-(1,2,4-triazolo[4,3-a]pyridine-3-ylethynyl)-4-methyl-N-(4-((4-methylpiperazin-1-yl)methyl)-3-trifluoromethylphenyl)benzamide for medical application” (priority 2016, dated 2022)
